According to patent US20070098800A1, “Therapeutic compositions” (priority 2002, published 2007):

Key:
[1] = test system: experimental model of arthritis created by injecting ovalbumin into the knees of rabbits; assay: Ovalbumin-induced arthritis (chronic synovitis) in rabbit knees: joint swelling, ovalbumin antibody titers, histological joint damage; format: in vivo; conditions: compared to vehicle controls, during the 3-week period (Example 1)
Experimental: (§1) At 3-day intervals over a 3-week period, joint swelling (circumference) is assessed, synovial fluid samples (25 μl) are collected for analysis of salicylate and betamethasone concentrations, and venous blood samples (0.5 ml) are collected for analysis of salicylate and betamethasone serum concentrations and ovalbumin antibody titers. At the end of 3 weeks the animals are sacrificed for histological assessment of joint damage.
as §1, with “(circumference) was” for “(circumference) is”, “μl) were” for “μl) are”, “and lidocaine” for “and betamethasone”, “ml) were” for “ml) are”, “animals were” for “animals are”
as §1, with “morphine” for “betamethasone”, “damage. […]” for “damage.”

[2] = Synovial fluid and serum drug concentrations after single i.a. injection in arthritic rabbits; conditions: rabbit, single 0.1 ml i.a. injection
Experimental: as §1
as §1, with “(circumference) was” for “(circumference) is”, “μl) were” for “μl) are”, “and lidocaine” for “and betamethasone”, “ml) were” for “ml) are”, “animals were” for “animals are”
as §1, with “morphine” for “betamethasone”
as §1, with “μl) were” for “μl) are”, “of salicylate, lidocaine,” for “of salicylate”, “and morphine” for “and betamethasone”

[3] = sampled at 3-day intervals over 3 weeks

SMILES	joint swelling [1]	serum ovalbumin antibody titers [1]	betamethasone levels (synovial fluid and serum) ([2]; after the early time points)	betamethasone levels in serum ([2]; early time points)	betamethasone levels in synovial fluid ([2]; early time points)	morphine serum levels [2, 3]	morphine synovial fluid levels [2, 3]
C[C@H]1C[C@H]2[C@@H]3CCC4=CC(=O)C=C[C@]4(C)[C@@]3(F)[C@@H](O)C[C@]2(C)[C@@]1(O)C(=O)COP(=O)([O-])[O-].[Na+].[Na+] [betamethasone, betamethasone sodium phosphate]	significantly reduced	significantly reduced	undetectable	low	low		
CN1CC[C@]23c4c5ccc(O)c4O[C@H]2[C@@H](O)C=C[C@H]3[C@H]1C5.O=S(=O)(O)O [morphine, morphine sulfate]						undetectable	undetectable
